Where two headings read alike, the source gives them in different places.
Test system: 3 T3-L1 adipocytes
Assay: Adipocyte glucose uptake test
Assay type: cell-based, mouse
Experimental: The 3 T3-L1 mouse embryonic fibroblasts were cultured for induction of adipogenesis, and […] 3 T3-L1 adipocytes were plated for glucose uptake. Krebs-Ringer-Phosphate-HEPES (KRPH) buffer was used to prepare 10-point 3-fold gradient diluted samples. After starvation, the adipocytes were rinsed with KRPH buffer. Ninety μL of gradient-diluted samples of different concentrations were added to each well with high- and low-signal control wells and incubated in a CO2 incubator for 30 min. Add 10 μL/well of KRPH buffer containing 0.25 μCi1- [3H] -deoxyglucose and 50 μM 2-deoxyglucose and incubate in a CO2 incubator for 20 min. Wash the cells with DPBS containing 10 mM glucose at 4 °C. Lysate fat cells with sodium hydroxide solution, transfer to scintillation tube, add scintillation fluid, and count with TriCarb.

[1] = mean ± SEM of 3 repeats, read-out: EC50, fat cell glucose uptake, Mean ± SEM
[2] = read-out: EC50, fat cell glucose uptake, N = 1, replicate N = 1, 3 T3-L1 adipocytes, 30 min sample, 20 min [3H]-deoxyglucose
[3] = read-out: EC50, fat cell glucose uptake, N = 2, replicate N = 2
[4] = read-out: EC50, fat cell glucose uptake, N = 3, replicate N = 3

Substance | EC50 [1] [nM] | EC50 [2] [nM] | EC50 [3] [nM] | EC50 [4] [nM]
H-Insulin: recombinant human insulin injection obtained from Lilly, a regular insulin | 1.8 ± 0.2 | 0.9 | 1.7 | 2.2
S-Insulin: recombinant human-derived insulin from Sigma, a regular insulin, standard control | 3.7 ± 0.5 | 2.5 | 5.3 | 3

From article PMC7653765 (BMC Complementary Medicine and Therapies, 2020)
